Experimental data published in patent publication US9828360B2 (Array BioPharma Inc., priority 2012, dated 2017).

Each compound was assayed against TrkA (Homo sapiens, UniProt P04629) (assay: TrkA LanthaScreen Eu Kinase Binding Assay). Details: averaged IC50 values, read-out: TrkA Enzyme IC50.
Parameters: 6HIS tagged cytoplasmic domain from Invitrogen, Cat. No. PV3144; purchased Invitrogen PV3144
Experimental: TrkA binding activity was determined in a TrkA LanthaScreen™ Eu Kinase Binding Assay. 5 nM His-tagged recombinant human TrkA (6HIS tagged cytoplasmic domain from Invitrogen, Cat. No. PV3144) was incubated with 4 nM Alexa-Fluor® Tracer 236 (Invitrogen Cat. No. PV5592), 2 nM biotinylated anti-His (Invitrogen Cat. No. PV6090), and 2 nM europium-labeled Streptavidin (Invitrogen Cat. No. PV5899), in buffer (25 mM MOPS, pH 7.5, 5 mM MgCl2, 0.005% Triton X-100). Three fold serial dilutions of compounds of the invention in DMSO were added to a final percentage of 2% DMSO. After 60-minute incubation at 22° C., the reaction was measured using the EnVision mutlimode plate reader (PerkinElmer) via TR-FRET dual wavelength detection at […]. The percent of control was calculated using a ratiometric emission factor. The IC50 values were determined by fitting a four parameter model to the percent of control data.
Table A provides averaged IC50 values for compounds of the invention when tested in the assay of Example A, where A represents an averaged IC50 value <100 nM; and B represents an averaged IC50 value from 100 to 1,000 nM.

Chain of TrkA (P04629 440-796 limits assumed): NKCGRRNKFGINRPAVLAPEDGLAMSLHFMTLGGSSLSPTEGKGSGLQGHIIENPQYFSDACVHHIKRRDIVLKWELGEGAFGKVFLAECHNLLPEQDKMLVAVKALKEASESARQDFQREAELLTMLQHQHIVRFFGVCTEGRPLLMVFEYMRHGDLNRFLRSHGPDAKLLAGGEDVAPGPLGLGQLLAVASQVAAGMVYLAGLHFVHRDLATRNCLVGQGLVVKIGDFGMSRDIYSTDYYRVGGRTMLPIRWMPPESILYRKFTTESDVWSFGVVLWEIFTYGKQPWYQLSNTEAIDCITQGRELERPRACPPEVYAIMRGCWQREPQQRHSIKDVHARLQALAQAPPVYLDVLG

| IC50 [nM] | Structure (SMILES) |
| --- | --- |
| < 100 | COCCN1C[C@@H](NC(=O)Nc2ccc(C)nc2-c2ccccc2)[C@H](c2ccc(F)c(F)c2)C1 [Example 29, 1-((3S,4R)-4-(3,4-difluorophenyl)-1-(2-methoxyethyl)pyrrolidin-3-yl)-3-(6-methyl-2-phenylpyridin-3-yl)urea] |
| < 100 | COCCN1C[C@@H](NC(=O)Nc2cc(-c3ccccc3)cnc2-c2ccccc2)[C@H](c2ccccc2)C1 [Example 7, 1-(2,5-diphenylpyridin-3-yl)-3-((3S,4R)-1-(2-methoxyethyl)-4-phenylpyrrolidin-3-yl)urea] |
| < 100 | COCCN1C[C@@H](NC(=O)Nc2cc(OC)cnc2-c2ccccc2)[C@H](c2ccc(F)c(F)c2)C1 [Example 26, 1-((3S,4R)-4-(3,4-difluorophenyl)-1-(2-methoxyethyl)pyrrolidin-3-yl)-3-(5-methoxy-2-phenylpyridin-3-yl)urea] |
| < 100 | COCCN1C[C@@H](NC(=O)Nc2cc(Br)cnc2-c2ccccc2)[C@H](c2ccc(F)c(F)c2)C1 [Example 6, 1-(5-bromo-2-phenylpyridin-3-yl)-3-((3S,4R)-4-(3,4-difluorophenyl)-1-(2-methoxyethyl)pyrrolidin-3-yl)urea] |
| < 100 | COCCN1C[C@@H](NC(=O)Nc2ccc(Cl)nc2-c2ccccc2)[C@H](c2ccc(F)c(F)c2)C1 [Example 21, 1-(6-chloro-2-phenylpyridin-3-yl)-3-((3S,4R)-4-(3,4-difluorophenyl)-1-(2-methoxyethyl)pyrrolidin-3-yl)urea] |
| < 100 | COCCN1C[C@@H](NC(=O)Nc2ccc(S(=O)(=O)C3CC3)nc2-c2ccccc2)[C@H](c2ccc(F)c(F)c2)C1 [Example 22, 1-(6-(cyclopropylsulfonyl)-2-phenylpyridin-3-yl)-3-((3S,4R)-4-(3,4-difluorophenyl)-1-(2-methoxyethyl)pyrrolidin-3-yl)urea] |
| < 100 | COCCN1C[C@@H](NC(=O)Nc2cccnc2-c2ccccc2)[C@H](c2ccc(F)c(F)c2)C1 [Example 19, 1-((3S,4R)-4-(3,4-difluorophenyl)-1-(2-methoxyethyl)pyrrolidin-3-yl)-3-(2-phenylpyridin-3-yl)urea] |
| 100 to 1000 | COCCN1C[C@@H](NC(=O)Nc2cc(=O)n(C)nc2-c2ccccc2)[C@H](c2ccc(F)c(F)c2)C1 [Example 34, 1-((3S,4R)-4-(3,4-difluorophenyl)-1-(2-methoxyethyl)pyrrolidin-3-yl)-3-(1-methyl-6-oxo-3-phenyl-1,6-dihydropyridazin-4-yl)urea] |
| < 100 | COCCN1C[C@@H](NC(=O)Nc2cc(Br)cnc2-c2ccccc2)[C@H](c2ccccc2)C1 [Example 5, 1-(5-bromo-2-phenylpyridin-3-yl)-3-((3S,4R)-1-(2-methoxyethyl)-4-phenylpyrrolidin-3-yl)urea] |
| 100 to 1000 | COCCN1C[C@@H](NC(=O)Nc2sc(C(=O)OC)nc2-c2ccccc2)[C@H](c2ccc(F)c(F)c2)C1 [Example 49, methyl 5-(3-((3S,4R)-4-(3,4-difluorophenyl)-1-(2-methoxyethyl)pyrrolidin-3-yl)ureido)-4-phenylthiazole-2-carboxylate] |
| < 100 | COCCN1C[C@@H](NC(=O)Nc2sc(C(C)C)nc2-c2ccccc2)[C@H](c2ccc(F)c(F)c2)C1 [Example 47, 1-((3S,4R)-4-(3,4-difluorophenyl)-1-(2-methoxyethyl)pyrrolidin-3-yl)-3-(2-isopropyl-4-phenylthiazol-5-yl)urea] |
| < 100 | COCCN1C[C@@H](NC(=O)Nc2c(-c3ccccc3)c(=O)n(C)n2C)[C@H](c2ccc(F)c(F)c2)C1 [Example 39, 1-((3S,4R)-4-(3,4-difluorophenyl)-1-(2-methoxyethyl)pyrrolidin-3-yl)-3-(1,2-dimethyl-5-oxo-4-phenyl-2,5-dihydro-1H-pyrazol-3-yl)urea] |
| 100 to 1000 | COCCN1C[C@@H](NC(=O)Nc2sc(C(=O)N(C)C)nc2-c2ccccc2)[C@H](c2ccc(F)c(F)c2)C1 [Example 52, 5-(3-((3S,4R)-4-(3,4-difluorophenyl)-1-(2-methoxyethyl)pyrrolidin-3-yl)ureido)-N,N-dimethyl-4-phenylthiazole-2-carboxamide] |
| < 100 | COCCN1C[C@@H](NC(=O)Nc2c(-c3ccccc3)nc(C)n2C)[C@H](c2ccc(F)c(F)c2)C1 [Example 38, 1-((3S,4R)-4-(3,4-difluorophenyl)-1-(2-methoxyethyl)pyrrolidin-3-yl)-3-(1,2-dimethyl-4-phenyl-1H-imidazol-5-yl)urea] |
| < 100 | COCCN1C[C@@H](NC(=O)Nc2ccc(S(C)(=O)=O)nc2-c2ccccc2)[C@H](c2ccc(F)c(F)c2)C1 [Example 12, 1-((3S,4R)-4-(3,4-difluorophenyl)-1-(2-methoxyethyl)pyrrolidin-3-yl)-3-(6-(methylsulfonyl)-2-phenylpyridin-3-yl)urea] |
| 100 to 1000 | COCCN1C[C@@H](NC(=O)Nc2ccc(-c3ccccc3)nc2C)[C@H](c2ccccc2)C1 [Example 8, 1-((3S,4R)-1-(2-methoxyethyl)-4-phenylpyrrolidin-3-yl)-3-(2-methyl-6-phenylpyridin-3-yl)urea] |
| < 100 | COCCN1C[C@@H](NC(=O)Nc2sc(-c3ccccc3)nc2C)[C@H](c2ccccc2)C1 [Example 46, 1-((3S,4R)-1-(2-methoxyethyl)-4-phenylpyrrolidin-3-yl)-3-(4-methyl-2-phenylthiazol-5-yl)urea] |
| < 100 | COCCN1C[C@@H](NC(=O)Nc2ccc(Br)nc2-c2ccccc2)[C@H](c2ccc(F)c(F)c2)C1 [Example 11, 1-(6-bromo-2-phenylpyridin-3-yl)-3-((3S,4R)-4-(3,4-difluorophenyl)-1-(2-methoxyethyl)pyrrolidin-3-yl)urea] |
| < 100 | COCCN1C[C@@H](NC(=O)Nc2oc(C(C)C)nc2-c2ccccc2)[C@H](c2ccc(F)c(F)c2)C1 [Example 43, 1-((3S,4R)-4-(3,4-difluorophenyl)-1-(2-methoxyethyl)pyrrolidin-3-yl)-3-(2-isopropyl-4-phenyloxazol-5-yl)urea] |
| < 100 | COCCN1C[C@@H](NC(=O)Nc2ccc(C)nc2-c2ccccc2)[C@H](c2ccc(F)cc2)C1 [Example 32, 1-((3S,4R)-4-(4-fluorophenyl)-1-(2-methoxyethyl)pyrrolidin-3-yl)-3-(6-methyl-2-phenylpyridin-3-yl)urea] |
| 100 to 1000 | COCCN1C[C@@H](NC(=O)Nc2ccc(-c3ccc(S(C)(=O)=O)cc3)nc2C)[C@H](c2ccc(F)c(F)c2)C1 [Example 17, 1-((3S,4R)-4-(3,4-difluorophenyl)-1-(2-methoxyethyl)pyrrolidin-3-yl)-3-(2-methyl-6-(4-(methylsulfonyl)phenyl)pyridin-3-yl)urea] |
| < 100 | CCOc1ccc(NC(=O)N[C@@H]2CN(CCOC)C[C@H]2c2ccc(F)c(F)c2)c(-c2ccccc2)n1 [Example 25] |
| < 100 | COCCN1C[C@@H](NC(=O)Nc2sc(-c3cnn(C)c3)nc2-c2ccccc2)[C@H](c2ccc(F)c(F)c2)C1 [Example 56, 1-((3S,4R)-4-(3,4-difluorophenyl)-1-(2-methoxyethyl)pyrrolidin-3-yl)-3-(2-(1-methyl-1H-pyrazol-4-yl)-4-phenylthiazol-5-yl)urea di(trifluoroacetate)] |
